Measurements published in patent US20190002825A1, “Method for Inducing Targeted Differentiation of Human Stem Cells Toward Hepatic Cells” (TRANSCEND CYTOTHERAPY CO., LTD, priority 2015, published 2019).

What was measured:
TGF-β type II receptors = TGF-β type II receptors (Homo sapiens, UniProt P37173); conditions: cited from earlier work
[1] = tested on: activin type II receptors; conditions: cited from earlier work
BMP type II receptors = conditions: cited from earlier work
[2] = tested on: PKC, cAMP-dependent protein kinases, MLCK and PAK; conditions: cited from earlier work
ALK2, ALK3 and ALK6 = conditions: cited from earlier work
ALK4 = biological target: T1, ALK4 (Homo sapiens, UniProt P36896); conditions: cited from earlier work
T1 sequence (P36896 24-505): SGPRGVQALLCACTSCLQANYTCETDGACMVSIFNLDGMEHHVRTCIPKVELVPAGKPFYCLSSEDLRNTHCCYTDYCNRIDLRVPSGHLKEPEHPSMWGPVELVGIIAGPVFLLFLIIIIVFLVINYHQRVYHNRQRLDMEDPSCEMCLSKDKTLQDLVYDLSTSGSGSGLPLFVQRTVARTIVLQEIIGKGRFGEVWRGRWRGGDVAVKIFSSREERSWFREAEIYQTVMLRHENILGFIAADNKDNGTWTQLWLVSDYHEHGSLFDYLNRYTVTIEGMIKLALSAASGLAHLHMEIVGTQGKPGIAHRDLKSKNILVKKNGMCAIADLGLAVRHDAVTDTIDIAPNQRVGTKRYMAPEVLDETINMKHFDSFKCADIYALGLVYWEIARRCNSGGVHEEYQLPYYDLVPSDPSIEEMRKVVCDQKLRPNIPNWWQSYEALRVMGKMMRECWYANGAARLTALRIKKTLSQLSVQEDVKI

Wnt signaling pathway = conditions: cited from earlier work
GSK-3α = GSK-3α (Homo sapiens, UniProt P49840); conditions: cited from earlier work
ROCK1 = ROCK1 (Homo sapiens, UniProt Q13464); conditions: cited from earlier work
TGF-βRII = TGF-βRII (Homo sapiens, UniProt P37173); conditions: cited from earlier work
[3] = biological target: TGF-β receptor type II (TβRII) (Homo sapiens, UniProt P37173); conditions: cell-free assays; cited from earlier work
CYP1A2 = type: cell-based, human
[4] = tested on: CDC2, ERK2 and other kinases; conditions: cited from earlier work
[5] = in vivo; cited from earlier work
[6] = tested on: p38, MAPK and other kinases; conditions: cited from earlier work
ALK7 = biological target: T2, ALK7 (Homo sapiens, UniProt Q8NER5); conditions: in words; cited from earlier work
T2 sequence (Q8NER5 21-493): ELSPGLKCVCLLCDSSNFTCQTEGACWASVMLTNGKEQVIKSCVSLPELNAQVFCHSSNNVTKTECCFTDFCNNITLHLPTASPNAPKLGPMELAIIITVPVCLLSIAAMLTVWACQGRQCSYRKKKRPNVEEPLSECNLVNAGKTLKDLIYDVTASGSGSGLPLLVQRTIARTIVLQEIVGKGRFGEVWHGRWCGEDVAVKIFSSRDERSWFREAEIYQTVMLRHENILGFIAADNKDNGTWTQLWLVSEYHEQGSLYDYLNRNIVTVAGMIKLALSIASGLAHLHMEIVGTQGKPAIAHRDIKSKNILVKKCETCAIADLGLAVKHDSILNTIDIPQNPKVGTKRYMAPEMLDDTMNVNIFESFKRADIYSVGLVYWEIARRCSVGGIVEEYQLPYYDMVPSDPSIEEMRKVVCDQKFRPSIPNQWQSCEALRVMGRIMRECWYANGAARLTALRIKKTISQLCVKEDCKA

ALK1, ALK2, ALK3 or ALK6 = conditions: cited from earlier work
[7] = tested on: human embryonic stem cells (hESCs); conditions: cited from earlier work
ROCK = conditions: cell-free assays; cited from earlier work
GSK-3β = GSK-3β (Homo sapiens, UniProt P49841); conditions: cited from earlier work
[8] = in vivo; cited from earlier work; remark: listed apart in the source

Sequence of GSK-3α (P49840 whole entry, species assumed): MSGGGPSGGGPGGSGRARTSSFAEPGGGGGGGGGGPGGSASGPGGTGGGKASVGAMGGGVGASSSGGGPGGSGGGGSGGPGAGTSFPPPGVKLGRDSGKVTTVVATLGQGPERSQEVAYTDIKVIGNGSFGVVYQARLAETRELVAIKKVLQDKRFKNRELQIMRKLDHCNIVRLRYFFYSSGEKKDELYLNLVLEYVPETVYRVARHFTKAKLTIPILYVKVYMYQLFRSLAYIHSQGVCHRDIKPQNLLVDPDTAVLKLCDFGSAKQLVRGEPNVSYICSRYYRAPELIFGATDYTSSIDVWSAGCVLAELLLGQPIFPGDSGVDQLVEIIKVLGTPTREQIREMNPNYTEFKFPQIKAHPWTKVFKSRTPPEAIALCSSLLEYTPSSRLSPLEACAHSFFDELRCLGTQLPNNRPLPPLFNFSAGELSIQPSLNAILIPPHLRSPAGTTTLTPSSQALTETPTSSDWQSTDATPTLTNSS
Sequence of ROCK1 (Q13464 whole entry): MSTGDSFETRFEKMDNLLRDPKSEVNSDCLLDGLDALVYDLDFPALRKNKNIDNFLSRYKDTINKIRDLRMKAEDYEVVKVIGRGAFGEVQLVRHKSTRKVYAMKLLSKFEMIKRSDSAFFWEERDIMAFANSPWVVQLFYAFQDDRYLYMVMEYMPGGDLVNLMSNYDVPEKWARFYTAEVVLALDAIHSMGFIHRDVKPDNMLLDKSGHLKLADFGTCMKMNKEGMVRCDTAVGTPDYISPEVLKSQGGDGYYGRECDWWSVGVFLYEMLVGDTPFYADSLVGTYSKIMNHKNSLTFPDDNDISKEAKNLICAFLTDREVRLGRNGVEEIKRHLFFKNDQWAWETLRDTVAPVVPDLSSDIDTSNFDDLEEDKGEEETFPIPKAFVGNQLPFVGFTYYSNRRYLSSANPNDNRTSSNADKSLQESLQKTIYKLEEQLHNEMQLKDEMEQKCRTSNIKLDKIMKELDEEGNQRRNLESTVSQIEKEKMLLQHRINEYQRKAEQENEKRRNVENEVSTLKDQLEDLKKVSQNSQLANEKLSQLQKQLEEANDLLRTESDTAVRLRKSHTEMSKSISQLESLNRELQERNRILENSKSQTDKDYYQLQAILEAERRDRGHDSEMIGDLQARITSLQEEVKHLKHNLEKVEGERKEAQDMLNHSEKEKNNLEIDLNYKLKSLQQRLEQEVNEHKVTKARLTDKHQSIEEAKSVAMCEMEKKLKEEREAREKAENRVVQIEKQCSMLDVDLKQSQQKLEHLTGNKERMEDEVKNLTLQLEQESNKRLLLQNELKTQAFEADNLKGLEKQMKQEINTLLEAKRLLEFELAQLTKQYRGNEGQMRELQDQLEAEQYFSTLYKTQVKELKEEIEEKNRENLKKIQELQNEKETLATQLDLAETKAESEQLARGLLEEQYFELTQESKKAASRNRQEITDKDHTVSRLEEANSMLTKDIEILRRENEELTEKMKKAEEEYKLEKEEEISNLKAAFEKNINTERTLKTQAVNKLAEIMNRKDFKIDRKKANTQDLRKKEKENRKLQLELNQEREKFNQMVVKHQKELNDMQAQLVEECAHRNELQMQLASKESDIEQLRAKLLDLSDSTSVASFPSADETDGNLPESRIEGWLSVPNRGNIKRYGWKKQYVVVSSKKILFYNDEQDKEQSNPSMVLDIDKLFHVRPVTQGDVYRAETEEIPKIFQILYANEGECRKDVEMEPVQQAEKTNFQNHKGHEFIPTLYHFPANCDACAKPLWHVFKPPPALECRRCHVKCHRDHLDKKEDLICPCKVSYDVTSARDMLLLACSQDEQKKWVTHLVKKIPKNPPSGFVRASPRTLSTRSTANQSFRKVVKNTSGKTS
Sequence of TGF-βRII (P37173 23-567): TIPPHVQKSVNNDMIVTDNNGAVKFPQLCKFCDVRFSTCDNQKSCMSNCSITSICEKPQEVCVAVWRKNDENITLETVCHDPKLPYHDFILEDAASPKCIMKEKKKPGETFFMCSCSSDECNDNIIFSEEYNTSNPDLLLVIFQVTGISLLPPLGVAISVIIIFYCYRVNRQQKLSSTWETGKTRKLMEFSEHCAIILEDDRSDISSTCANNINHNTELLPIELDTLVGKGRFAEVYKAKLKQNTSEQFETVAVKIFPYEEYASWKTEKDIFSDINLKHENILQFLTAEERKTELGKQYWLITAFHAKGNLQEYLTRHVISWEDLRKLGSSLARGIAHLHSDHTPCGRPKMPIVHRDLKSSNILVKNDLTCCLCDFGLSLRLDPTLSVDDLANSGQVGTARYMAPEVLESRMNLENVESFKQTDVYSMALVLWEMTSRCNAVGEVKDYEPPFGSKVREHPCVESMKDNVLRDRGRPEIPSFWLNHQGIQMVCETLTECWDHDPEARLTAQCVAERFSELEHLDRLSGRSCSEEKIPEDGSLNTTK
Sequence of TGF-β receptor type II (TβRII) (P37173 23-567): as above
Sequence of TGF-β type II receptors (P37173 23-567): as above
Sequence of GSK-3β (P49841 whole entry): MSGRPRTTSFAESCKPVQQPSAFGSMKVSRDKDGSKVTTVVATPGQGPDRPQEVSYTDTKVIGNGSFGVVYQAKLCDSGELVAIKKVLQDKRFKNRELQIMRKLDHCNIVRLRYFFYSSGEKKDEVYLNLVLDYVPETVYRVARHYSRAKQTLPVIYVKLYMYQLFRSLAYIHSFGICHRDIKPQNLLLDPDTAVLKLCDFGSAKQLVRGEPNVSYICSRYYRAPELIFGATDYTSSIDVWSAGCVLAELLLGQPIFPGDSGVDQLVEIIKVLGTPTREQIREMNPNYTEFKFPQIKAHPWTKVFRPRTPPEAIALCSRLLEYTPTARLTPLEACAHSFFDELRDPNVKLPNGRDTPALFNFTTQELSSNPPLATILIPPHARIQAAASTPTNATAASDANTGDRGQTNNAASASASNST

O=C(NC1CCOCC1)c1ccc(-c2cc(-c3c[nH]nc3-c3ccccn3)ccn2)cc1 [GW788388]
inhibition of the activity of TGF-β type II receptors (TGF-β type II receptors): inhibits
inhibition of the activity of activin type II receptors [1]: inhibits
inhibition of the activity of BMP type II receptors (BMP type II receptors): does not inhibit

C[C@@H](N)[C@H]1CC[C@H](C(=O)Nc2ccncc2)CC1 [Y-27632]
times more inhibitory on ROCK1 than on other kinases including PKC, cAMP-dependent protein kinases, MLCK and PAK [2]: ≥ 200 times

Cc1cccc(-c2[nH]c(C(C)(C)C)nc2-c2ccc3nccnc3c2)n1 [SB525334]
activity on ALK2, ALK3 and ALK6 (ALK2, ALK3 and ALK6): no activity
effect on ALK4, times lower than on ALK5 (ALK4): 4 times

CN1CCN(S(=O)(=O)c2ccc(-c3cnc(N)c(C(=O)Nc4cccnc4)n3)cc2)CC1 [AZD2858]
effect on the Wnt signaling pathway (Wnt signaling pathway): enhances

CHIR-98014
IC50 (GSK-3α): 0.65 nM

O=C(NCc1cccc(O)c1)Nc1nc(-c2ccncc2)cs1 [RKI-1447]
IC50 (ROCK1): 14.5 nM

SD-208
times more selective on TGF-βRI than on TGF-βRII (TGF-βRII): ≥ 100 times

c1ccc(-c2nn3c(c2-c2ccnc4cc(OCCN5CCOCC5)ccc24)CCC3)nc1 [LY2109761]
Ki [3]: 300 nM

COc1ccc2[nH]c([S+]([O-])Cc3ncc(C)c(OC)c3C)nc2c1 (centres unmarked) [omeprazole]
activity of P450 enzyme (CYP1A2) when induced (CYP1A2): enhanced

Cc1cnc(-c2cnc(NCCNc3ccc(C#N)cn3)nc2-c2ccc(Cl)cc2Cl)[nH]1 [CHIR-99021]
times more inhibitory on GSK-3α and GSK-3β than on CDC2, ERK2 and other kinases [4]: 500 times

Cc1cccc(-c2[nH]c(CNc3ccccc3F)nc2-c2ccc3ncnn3c2)n1 [EW-7197]
oral bioavailability [5]: orally bioavailable

NC(=O)c1ccc(-c2nc(-c3ccc4c(c3)OCO4)c(-c3ccccn3)[nH]2)cc1 [SB-431542]
times more inhibitory on ALK5 than on p38, MAPK and other kinases [6]: 100 times

Cc1cccc(-c2[nH]c(C(C)(C)C)nc2-c2ccc3c(c2)OCO3)n1 [SB505124]
inhibition of ALK7 (ALK7): inhibits
inhibition of ALK1, ALK2, ALK3 or ALK6 (ALK1, ALK2, ALK3 or ALK6): does not inhibit
IC50 (ALK4; cell-free assays where stated): 129 nM

O=C(NCc1ccccc1)c1csc(Nc2ccncn2)n1 [Thiazovivin]
survival of human embryonic stem cells (hESCs) after single cell isolation [7]: promotes the survival
IC50 (ROCK): 500 nM

Nc1cccc(-c2cc3c(Oc4cccc(O)c4)ncnc3[nH]2)c1 [TWS119]
IC50 (GSK-3β): 30 nM

N#Cc1ccc2[nH]c(O)c(-c3ccc(CN4CCOCC4)cn3)c2c1 [AZD1080]
permeability to the brain [8]: permeable to the brain
oral bioavailability [5]: orally bioavailable
